The source of these data is DBAASP.

Among the test systems are Escherichia coli TOP 10; Escherichia coli JM109; Bacillus cereus AS1.126; Escherichia coli AS1.349.
Holding throughout (test): ≥ marks a high value that may be exact or a test limit, other limits are often not marked, values filed in µg/mL are converted to µM
The subject of assay [1] is Escherichia coli ATCC 11219.
Assay [2] concerns Staphylococcus aureus ATCC 6538.
Assay [3] has as its system Salmonella enterica subsp. enterica serovar Typhimurium ATCC 14028.
In assay [4] the test system is Klebsiella pneumoniae ATCC 10031.
In assay [5] the test system is Pseudomonas aeruginosa ATCC 13388.
Assay [6] deals with Escherichia coli ATCC 25922.
Assay [7] has as its system Enterococcus faecalis ATCC 29212.
The test system of assay [8] is Candida albicans ATCC 14053.
The test system of assay [9] is Klebsiella pneumoniae ATCC 13883.
Assay [10] has as its system Staphylococcus aureus ATCC 29213.
Assay [11] has as its system Pseudomonas aeruginosa ATCC 27853.
The subject of assay [12] is Staphylococcus aureus KCTC 1621.
Assay [13] relates to Salmonella typhimurium KCTC 1926.
The test system of assay [14] is Pseudomonas aeruginosa KCTC 1637.
For assay [15], the system named is Escherichia coli KCTC 1682.
For assay [16], the system named is Bacillus subtilis KCTC 3068.
The subject of assay [17] is Staphylococcus epidermidis KCTC 1917.
The subject of assay [18] is Bacillus subtilis KCTC 1918.
Assay [19] deals with Candida albicans TIMM 1768.
Assay [20] relates to Trichosporon beigelii KCTC 7707.
Assay [21] deals with Enterococcus faecium CGMCC 1.2334.
Assay [22] has as its system Enterobacter cloacae CGMCC 1.58.
Assay [23] relates to Lactococcus lactis AS1.1690.
In assay [24] the test system is Klebsiella pneumoniae subsp. pneumoniae CGMCC 1.176.
The subject of assay [25] is Pseudomonas aeruginosa CGMCC 1.860.
Assay [26] has as its system Klebsiella aerogenes CGMCC 1.876.
Assay [27] concerns Enterococcus faecalis CGMCC 1.595.
In assay [28] the test system is Staphylococcus aureus AS1.72.

Each structure is given as a SMILES string. Converted amounts (≈) assume the structure as drawn. Where only a bound is given, the exact number is not on record here.

What is called MIC is the smallest concentration in the dilution series that meets the test's criterion for growth inhibition. A low value points to inhibition by little substance. Consider `CC[C@H](C)[C@H](NC(=O)CN)C(=O)N[C@@H](C)C(=O)N[C@@H](CC(=O)O)C(=O)N[C@H](C(=O)N[C@@H](CC(C)C)C(=O)N[C@@H](CCCCN)C(=O)N[C@@H](Cc1ccc(O)cc1)C(=O)NCC(=O)N[C@@H](CCCCN)C(=O)N1CCC[C@H]1C(=O)N[C@@H](CO)C(N)=O)[C@@H](C)CC` [GIADILKYGKPS], for which the MIC in assay [1] was no less than 50 µM; in [2] it was 20 µM (≈ 25.2 µg/mL); in assay [3], 10 µM (≈ 12.6 µg/mL); in [4], 30 µM (≈ 37.8 µg/mL); in assay [5] it was 15 µM (≈ 18.9 µg/mL).

Turning to `CC[C@H](C)[C@H](NC(=O)CN)C(=O)N[C@@H](CCCCN)C(=O)N[C@@H](CC(=O)O)C(=O)N[C@H](C(=O)N[C@@H](CC(C)C)C(=O)N[C@@H](CCCCN)C(=O)N[C@@H](Cc1ccc(O)cc1)C(=O)NCC(=O)N[C@@H](CCCCN)C(=O)N1CCC[C@H]1C(=O)N[C@@H](CO)C(N)=O)[C@@H](C)CC` [GIKDILKYGKPS], the minimal inhibitory concentration (MIC) worked out at 10 µM (≈ 13.2 µg/mL) in assay [1]; 15 µM (≈ 19.8 µg/mL) in assay [2]; 5 µM (≈ 6.59 µg/mL) in assay [3]; 10 µM (≈ 13.2 µg/mL) in assay [4]; 30 µM (≈ 39.5 µg/mL) in assay [5].

As to `CC[C@H](C)[C@H](NC(=O)CNC(C)=O)C(=O)N[C@@H](CCCN=C(N)N)C(=O)N[C@@H](CCCN=C(N)N)C(=O)N[C@H](C(=O)N[C@@H](CC(C)C)C(=O)N[C@@H](CCCCN)C(=O)N[C@@H](Cc1ccc(O)cc1)C(=O)NCC(=O)N[C@@H](CCCCN)C(=O)N[C@@H](CCCN=C(N)N)C(=O)N[C@@H](CO)C(N)=O)[C@@H](C)CC` [GIRRILKYGKRS], the MIC stood at 5 µM (≈ 7.44 µg/mL) in assay [1]; 2.2 µM (≈ 3.27 µg/mL) in assay [2]; 20 µM (≈ 29.8 µg/mL) in assay [3]; 5 µM (≈ 7.44 µg/mL) in [4]; 20 µM (≈ 29.8 µg/mL) in assay [5].

Take `CC[C@H](C)[C@H](NC(=O)[C@H](CCCCN)NC(=O)[C@H](CO)NC(=O)[C@H](C)NC(=O)[C@H](Cc1c[nH]c2ccccc12)NC(=O)CN)C(=O)NCC(=O)N[C@@H](CCC(N)=O)C(=O)N[C@H](C(=O)N[C@@H](CC(C)C)C(=O)NCC(=O)N[C@@H](CCCCN)C(=O)N[C@H](C(=O)N[C@@H](C)C(=O)N[C@@H](CCCCN)C(=O)N[C@H](C(=O)NCC(=O)N[C@@H](CC(C)C)C(=O)N[C@@H](CCCCN)C(=O)N[C@@H](CCC(=O)O)C(=O)N[C@@H](CC(C)C)C(=O)N[C@H](C(=O)N[C@@H](CCC(N)=O)C(=O)N1CCC[C@H]1C(=O)N[C@@H](CCCCN)C(N)=O)[C@@H](C)CC)C(C)C)[C@@H](C)CC)[C@@H](C)O` [GWASKIGQTLGKIAKVGLKELIQPK]: the MIC is 8.36 µM (≈ 22.3 µg/mL) in assay [6]; 133 µM (≈ 353 µg/mL) in assay [7]; no less than 133 µM in assay [8]; no less than 33 µM in assay [9]; 133 µM (≈ 353 µg/mL) in assay [10]; 66.4 µM (≈ 177 µg/mL) in assay [11].

Take `CC[C@H](C)[C@H](N)C(=O)N[C@@H](CCCCN)C(=O)N[C@@H](C)C(=O)N[C@@H](CC(C)C)C(=O)N[C@@H](CC(C)C)C(=O)N[C@@H](C)C(=O)N[C@@H](CC(C)C)C(=O)N1CCC[C@H]1C(=O)N[C@@H](CCCCN)C(=O)N[C@@H](CC(C)C)C(=O)N[C@@H](C)C(=O)N[C@@H](CCCCN)C(=O)N[C@@H](CCCCN)C(=O)N[C@H](C(=O)N[C@@H](C)C(=O)N[C@@H](CCCCN)C(=O)N[C@@H](CCCCN)C(=O)N[C@@H](Cc1ccccc1)C(=O)N[C@@H](CC(C)C)C(=O)N[C@@H](CCCCN)C(N)=O)[C@@H](C)CC` [IKALLALPKLAKKIAKKFLK]: the MIC in the assay with Escherichia coli TOP 10 stood at 22.4 µM (≈ 50 µg/mL).

With `CC[C@H](C)[C@H](N)C(=O)N[C@@H](CC(C)C)C(=O)N1CCC[C@H]1C(=O)N[C@@H](Cc1c[nH]c2ccccc12)C(=O)N[C@@H](CCCCN)C(=O)N[C@@H](Cc1c[nH]c2ccccc12)C(=O)N[C@@H](CCCCN)C(=O)N[C@@H](Cc1c[nH]c2ccccc12)C(=O)N[C@@H](Cc1c[nH]c2ccccc12)C(=O)N1CCC[C@H]1C(=O)N[C@@H](Cc1c[nH]c2ccccc12)C(=O)N[C@@H](CCCN=C(N)N)C(=O)N[C@@H](CCCN=C(N)N)C(N)=O` [ILPWKWKWWPWRR], the MIC worked out at 2.58 µM (≈ 5 µg/mL) in [12]; 5.16 µM (≈ 10 µg/mL) in assay [13]; 10.3 µM (≈ 20 µg/mL) in assay [14]; 5.16 µM (≈ 10 µg/mL) in assay [15]; 2.58 µM (≈ 5 µg/mL) in [16]; 1 µM (≈ 1.94 µg/mL) against Escherichia coli JM109. In addition, the MIC in [17] came out at 5.16 µM (≈ 10 µg/mL).

In the assay with Escherichia coli TOP 10, `CC[C@H](C)[C@H](NC(=O)[C@H](CO)NC(=O)[C@H](CCCN=C(N)N)NC(=O)[C@@H](NC(=O)[C@H](CS)NC(=O)[C@H](CO)NC(=O)[C@@H]1CCCN1C(=O)[C@H](CC(C)C)NC(=O)[C@H](Cc1ccccc1)NC(=O)[C@H](CCCN=C(N)N)NC(=O)[C@@H](N)CCCCN)C(C)C)C(=O)N[C@@H](CCC(N)=O)C(=O)N[C@@H](CC(N)=O)C(=O)N[C@@H](CC(C)C)C(=O)N[C@@H](CC(=O)O)C(=O)N[C@@H](CC(=O)O)C(=O)N[C@@H](C)C(=O)N[C@@H](CC(C)C)C(=O)N1CCC[C@H]1C(=O)N[C@H](C(=O)N1CCC[C@H]1C(=O)N[C@@H](CCC(=O)O)C(=O)N[C@@H](CCC(=O)O)C(=O)N[C@@H](Cc1ccccc1)C(N)=O)[C@@H](C)O` [KRFLPSCVRSIQNLDDALPTPEEF] gave a minimum inhibitory concentration (MIC) of no less than 36 µM.

As for `CC(C)C[C@H](NC(=O)[C@H](CCCCN)NC(=O)[C@H](CCCCN)NC(=O)[C@H](Cc1c[nH]c2ccccc12)NC(=O)[C@@H](N)CCCCN)C(=O)N[C@@H](CC(C)C)C(=O)N[C@@H](CCCCN)C(=O)N[C@@H](CCCCN)C(=O)N1CCC[C@H]1C(=O)N[C@@H](CC(C)C)C(=O)N[C@@H](CC(C)C)C(=O)N[C@@H](CCCCN)C(=O)N[C@@H](CCCCN)C(N)=O` [KWKKLLKKPLLKK], the MIC worked out at 12.5 µM (≈ 20.6 µg/mL) in assay [12]; 6.25 µM (≈ 10.3 µg/mL) in assay [18]; 1.56 µM (≈ 2.57 µg/mL) in [13]; 12.5 µM (≈ 20.6 µg/mL) in [14]; 12.5 µM (≈ 20.6 µg/mL) in assay [15]; 25 µM (≈ 41.3 µg/mL) in [19]. The MIC in assay [20] came to 25 µM (≈ 41.3 µg/mL).

Turning to `NC(N)=NCCC[C@H](NC(=O)[C@H](CCCN=C(N)N)NC(=O)[C@H](Cc1c[nH]c2ccccc12)NC(=O)[C@H](Cc1ccccc1)NC(=O)[C@H](CCCN=C(N)N)NC(=O)[C@H](CCCN=C(N)N)NC(=O)[C@@H](N)Cc1c[nH]c2ccccc12)C(=O)O` [WRRFWRR], the minimal inhibitory concentration (MIC) is 25 µM (≈ 29.1 µg/mL) in assay [21]; no less than 100 µM in [22]; 12.5 µM (≈ 14.5 µg/mL) in assay [23]; no less than 100 µM in assay [24]; 12.5 µM (≈ 14.5 µg/mL) in assay [25]; 1.56 µM (≈ 1.81 µg/mL) against Bacillus cereus AS1.126. For the same compound, the MIC in assay [26] is no less than 100 µM; in assay [27], 25 µM (≈ 29.1 µg/mL); in assay [28] it was no less than 50 µM; with Escherichia coli AS1.349, 25 µM (≈ 29.1 µg/mL).
